Data published in patent US7723524B2, “8-cyanoquinolonecarboxylic acid derivative” (Daiichi Pharmaceutical Co., Ltd., priority 2003, dated 2010).
Values after ≈ are worked out from the molar mass of the structure shown. Counter-ions that a name gives are not always drawn. Like-named read-outs stand apart in the source and are kept apart here.

Columns and labels:
[1] = test system: S. marcescens 10100; test: Antibacterial activity (MIC), standard method of the Japanese Society of Chemotherapy; format: cell-based; conditions: Serratia marcescens
Description: (§1) Antibacterial activity of the compounds of the present invention was measured in accordance with the standard method designated by the Japanese Society of Chemotherapy. The results are shown in MIC values (μg/mL) (Table 1). For comparison with the MIC values of the compounds of the present invention, MIC values of levofloxacin (LVFX), ciprofloxacin (CPFX), and 7-[3-(R)-(1-aminocyclopropyl)pyrrolidin-1-yl]-8-cyano-1-[2-(S)-fluoro-1-(R)-cyclopropyl]-1,4-dihydro-4-oxoquinoline-3-carboxylic acid (control drug 1: represented by the following formula), which is described in International Publication WO 02/40478 pamphlet, are also shown in the table.

[2] = test system: S. aureus FDA 209P; test: as above; format: cell-based; conditions: Staphylococcus aureus, FDA209P
Description: as §1

[3] = test system: P. aeruginosa 32104; test: as above; format: cell-based; conditions: Pseudomonas aeruginosa
Description: as §1

[4] = test system: S. maltophilia IID 1275; test: as above; format: cell-based; conditions: Stenotrophomonas maltophilia, IID1275
Description: as §1

[5] = test system: S. pneumoniae J24; test: as above; format: cell-based; conditions: Streptococcus pneumoniae
Description: as §1

[6] = test system: S. pyogenes G-36; test: as above; format: cell-based; conditions: Streptococcus pyogenes, G36
Description: as §1

[7] = test system: K. pneumoniae TYPE I; test: as above; format: cell-based; conditions: Klebsiella pneumoniae
Description: as §1

[8] = test system: S. epidermidis 56500; test: as above; format: cell-based; conditions: Staphylococcus epidermidis
Description: as §1

[9] = test system: P. aeruginosa 32121; test: as above; format: cell-based; conditions: Pseudomonas aeruginosa
Description: as §1

[10] = test system: E. coli NIHJ; test: as above; format: cell-based; conditions: Escherichia coli
Description: as §1

[11] = test system: S. flexneri 2A 5503; test: as above; format: cell-based; conditions: Shigella flexneri, 2A5503
Description: as §1

[12] = test system: E. faevcalis ATCC 19433; test: as above; format: cell-based
Description: as §1

[13] = test system: S. aureus 870307; test: as above; format: cell-based; conditions: Staphylococcus aureus
Description: as §1

[14] = test system: P. Vulgaris 08601; test: as above; format: cell-based; conditions: Proteus vulgaris
Description: as §1

[15] = test system: mouse bone marrow polychromatic erythrocytes; test: Mouse bone marrow micronucleus test; format: in vivo; conditions: male Slc:ddY mice, 24 hours after administration
Description: By use of compound Nos. 1 and 2, a mouse bone marrow micronucleus test was performed through the following method.
Groups of mice, each consisting of five, six-week-old, male Slc:ddY mice, were used. Compound Nos. 1 and 2 were dissolved in and diluted with 0.1 mol/L NaOH/saline. The medium; i.e., 0.1 mol/L NaOH/saline, was used as a control, and a drug solution which had been prepared by dissolving and diluting cyclophosphamide in saline was used as a positive control drug. All the drug solutions were disinfected through filtration by use of a Mylex GS 0.22 μm filter. Each drug solution was intravenously administered with a regimen of 10 mL/kg single dose at a rate of 0.2 mL/min (100 and 150 mg/kg). Twenty four hours after administration, […] were collected from the femur bone, the smear preparations were prepared, and these were stained with […].

[16] = S. marcescens 10100, read-out: MIC
[17] = S. aureus FDA 209P, read-out: MIC
[18] = P. aeruginosa 32104, read-out: MIC
[19] = S. maltophilia IID 1275, read-out: MIC
[20] = S. pneumoniae J24, read-out: MIC
[21] = S. pyogenes G-36, read-out: MIC
[22] = K. pneumoniae TYPE I, read-out: MIC
[23] = S. epidermidis 56500, read-out: MIC
[24] = P. aeruginosa 32121, read-out: MIC
[25] = E. faevcalis ATCC 19433, read-out: MIC
[26] = S. aureus 870307, read-out: MIC
[27] = P. Vulgaris 08601, read-out: MIC

Row | SMILES | MIC [1, 16] [µg/mL] | MIC [2, 17] [µg/mL] | MIC [3, 18] [µg/mL] | MIC [4, 19] [µg/mL] | MIC [5, 20] [µg/mL] | MIC [6, 21] [µg/mL] | MIC [7, 22] [µg/mL] | MIC [8, 23] [µg/mL] | MIC [9, 24] [µg/mL] | MIC ([10]; E. coli NIHJ, read-out: MIC) [µg/mL] | MIC [11] [µg/mL] | MIC [12, 25] [µg/mL] | MIC [13, 26] [µg/mL] | MIC [14, 27] [µg/mL] | also measured
1 | N#Cc1c(N2CC[C@@H](C3(N)CC3)C2)c(F)cc2c(=O)c(C(=O)O)cn(C3CC3)c12 [No. 2] | 0.025 (≈ 0.0631 µM) | ≤ 0.003 | 0.1 (≈ 0.252 µM) | 0.1 (≈ 0.252 µM) | 0.006 (≈ 0.0151 µM) | 0.006 (≈ 0.0151 µM) | 0.012 (≈ 0.0303 µM) | 0.012 (≈ 0.0303 µM) | 0.05 (≈ 0.126 µM) | ≤ 0.003 | ≤ 0.003 | 0.025 (≈ 0.0631 µM) | 0.05 (≈ 0.126 µM) | 0.006 (≈ 0.0151 µM) | –
2 | O=C(O)c1cn(C2CC2)c2cc(N3CCNCC3)c(F)cc2c1=O [CPFX, ciprofloxacin, reference compound] | 0.025 (≈ 0.0754 µM) | 0.1 (≈ 0.302 µM) | 0.05 (≈ 0.151 µM) | 0.78 (≈ 2.35 µM) | 0.39 (≈ 1.18 µM) | 1.56 (≈ 4.71 µM) | 0.025 (≈ 0.0754 µM) | 0.2 (≈ 0.604 µM) | 0.025 (≈ 0.0754 µM) | ≤ 0.003 | 0.006 (≈ 0.0181 µM) | 0.78 (≈ 2.35 µM) | > 6.25 | ≤ 0.003 | –
3 | N#Cc1c(N2CC[C@@H](C3(N)CC3)C2)c(F)cc2c(=O)c(C(=O)O)cn([C@@H]3C[C@@H]3F)c12 (hydrate or solvate) [Compound No. 1, 7-[3-(R)-(1-Aminocyclopropyl)pyrrolidin-1-yl]-8-cyano-6-fluoro-1-[2-(S)-fluoro-1-(R)-cyclopropyl]-1,4-dihydro-4-oxoquinoline-3-carboxylate] | – | – | – | – | – | – | – | – | – | – | – | – | – | – | melting point: 138 to 140 °C
4 | N#Cc1c(N2CC[C@@H](C3(N)CC3)C2)c(F)cc2c(=O)c(C(=O)O)cn([C@@H]3C[C@@H]3F)c12 [No. 1] | 0.025 (≈ 0.0603 µM) | ≤ 0.003 | 0.1 (≈ 0.241 µM) | 0.2 (≈ 0.483 µM) | 0.006 (≈ 0.0145 µM) | 0.006 (≈ 0.0145 µM) | 0.025 (≈ 0.0603 µM) | 0.006 (≈ 0.0145 µM) | 0.05 (≈ 0.121 µM) | ≤ 0.003 | ≤ 0.003 | 0.025 (≈ 0.0603 µM) | 0.05 (≈ 0.121 µM) | 0.006 (≈ 0.0145 µM) | difference in the micronucleus induction rate between the control and the administration group ([15]; 150 mg/kg intravenous single dose): no significant difference; micronucleus test judgment result ([15]; intravenous single dose, up to 150 mg/kg): negative
5 | CCNC1([C@@H]2CCN(c3c(F)cc4c(=O)c(C(=O)O)cn([C@@H]5C[C@@H]5F)c4c3C#N)C2)CC1 [No. 4] | – | – | – | – | – | – | – | – | – | – | 0.006 (≈ 0.0136 µM) | – | – | – | MIC [1]; 10100: 0.1 µg/mL (≈ 0.226 µM); MIC [2]: 0.006 µg/mL (≈ 0.0136 µM); MIC [3]; 32104: 0.2 µg/mL (≈ 0.452 µM); MIC [4]: 0.2 µg/mL (≈ 0.452 µM); MIC ([5]; J24): 0.006 µg/mL (≈ 0.0136 µM); MIC [6]: 0.025 µg/mL (≈ 0.0565 µM); MIC [7]: 0.025 µg/mL (≈ 0.0565 µM); MIC [8]; 56500: 0.006 µg/mL (≈ 0.0136 µM); MIC [9]; 32121: 0.1 µg/mL (≈ 0.226 µM); MIC [10]: 0.006 µg/mL (≈ 0.0136 µM); MIC [12]: 0.05 µg/mL (≈ 0.113 µM); MIC [13]; 870307: 0.025 µg/mL (≈ 0.0565 µM); MIC [14]: 0.012 µg/mL (≈ 0.0271 µM)
6 | N#Cc1c(N2CC[C@@H](C3(N)CC3)C2)ccc2c(=O)c(C(=O)O)cn([C@@H]3C[C@@H]3F)c12 [Control drug 1, 7-[3-(R)-(1-aminocyclopropyl)pyrrolidin-1-yl]-8-cyano-1-[2-(S)-fluoro-1-(R)-cyclopropyl]-1,4-dihydro-4-oxoquinoline-3-carboxylic acid, reference compound] | 0.1 (≈ 0.252 µM) | 0.006 (≈ 0.0151 µM) | 0.2 (≈ 0.505 µM) | 0.78 (≈ 1.97 µM) | 0.025 (≈ 0.0631 µM) | 0.025 (≈ 0.0631 µM) | 0.1 (≈ 0.252 µM) | 0.05 (≈ 0.126 µM) | 0.1 (≈ 0.252 µM) | 0.012 (≈ 0.0303 µM) | 0.012 (≈ 0.0303 µM) | 0.1 (≈ 0.252 µM) | 0.39 (≈ 0.984 µM) | 0.025 (≈ 0.0631 µM) | –
7 | CNC1([C@@H]2CCN(c3c(F)cc4c(=O)c(C(=O)O)cn([C@@H]5C[C@@H]5F)c4c3C#N)C2)CC1 [No. 3] | – | – | – | – | – | – | – | – | – | – | ≤ 0.003 | – | – | – | MIC [1]; 10100: 0.05 µg/mL (≈ 0.117 µM); MIC [2]: 0.006 µg/mL (≈ 0.014 µM); MIC [3]; 32104: 0.1 µg/mL (≈ 0.233 µM); MIC [4]: 0.1 µg/mL (≈ 0.233 µM); MIC ([5]; J24): 0.006 µg/mL (≈ 0.014 µM); MIC [6]: 0.006 µg/mL (≈ 0.014 µM); MIC [7]: 0.025 µg/mL (≈ 0.0584 µM); MIC [8]; 56500: 0.012 µg/mL (≈ 0.028 µM); MIC [9]; 32121: 0.05 µg/mL (≈ 0.117 µM); MIC [10]: ≤ 0.003 µg/mL; MIC [12]: 0.05 µg/mL (≈ 0.117 µM); MIC [13]; 870307: 0.025 µg/mL (≈ 0.0584 µM); MIC [14]: 0.012 µg/mL (≈ 0.028 µM)
8 | C[C@H]1COc2c(N3CCN(C)CC3)c(F)cc3c(=O)c(C(=O)O)cn1c23 [LVFX, levofloxacin, reference compound] | 0.1 (≈ 0.277 µM) | 0.2 (≈ 0.553 µM) | 0.2 (≈ 0.553 µM) | 0.39 (≈ 1.08 µM) | 0.78 (≈ 2.16 µM) | 0.78 (≈ 2.16 µM) | 0.1 (≈ 0.277 µM) | 0.39 (≈ 1.08 µM) | 0.1 (≈ 0.277 µM) | 0.012 (≈ 0.0332 µM) | 0.025 (≈ 0.0692 µM) | 0.78 (≈ 2.16 µM) | > 6.25 | 0.012 (≈ 0.0332 µM) | –
9 | N#Cc1c(N2CC[C@@H](C3(N)CC3)C2)c(F)cc2c(=O)c(C(=O)O)cn(C3CC3)c12 (as salt: trifluoroacetate) (hydrate or solvate) [Compound No. 2, 7-[3-(R)-(1-Aminocyclopropyl)pyrrolidin-1-yl]-8-cyano-1-cyclopropyl-6-fluoro-1,4-dihydro-4-oxoquinoline-3-carboxylate] | – | – | – | – | – | – | – | – | – | – | – | – | – | – | melting point: 148 to 152 °C
